Here are results for 7 molecules from patent publication US5395842A, “Anti-estrogenic compounds and compositions” (Endorecherche Inc., priority 1991, dated 1995).

Test [1] deals with 17β-hydroxysteroid dehydrogenase. The following applies: Thomas et al., 1983; cited from earlier work.
In test [2] the test system is uterine weight in adult female ovariectomized Balb/c mice. The experiment in a line: inhibition of the estradiol-induced stimulation of uterine weight in adult female ovariectomized Balb/c mice. It is filed as in vivo. The method, then:
EM-142, and/or estradiol contained in ethanol were injected subcutaneously in the appropriate groups in a solution of 0.9% (w/v) sodium chloride and 1% (w/v) gelatin at different concentrations in 0.2 ml for EM-142, twice daily, starting on the day of ovariectomy for a total of 9 injections. Estradiol was injected at the dose of 0.01 μg in 0.2 ml, twice daily, starting on the morning after ovariectomy for a total of 8 injections.
After sacrifice, the uteri were rapidly removed, freed from fat and connective tissue and weighted. Results shown in FIG. 2 are the means±SEM of groups of 9-10 mice.
"EM 139", and/or estradiol dissolved in ethanol were injected subcutaneously in the appropriate groups in a solution of 0.9% (w/v) sodium chloride and 1% (w/v) gelatin at different concentrations of "EM 139" (as noted along the X axis of FIG. 3). A dosage of 0.2 ml of the foregoing preparation, was administered twice daily, starting on the day of ovariectomy for a total of 9 injections. Estradiol was injected at the dose of 0.01 μg in 0.2 ml, twice daily, starting on the morning after ovariectomy for a total of 8 injections.
After sacrifice, the uteri were rapidly removed, freed from fat and connective tissue and weighed. Results shown in FIG. 3 are the means±SEM of groups of 9-10 mice.

In test [3] the test system is 17β-hydroxysteroid dehydrogenase (17β-HSD). The test is described as follows: inhibition of 17β-HSD catalyzed conversion of estradiol to estrone (NADH formation at 340 nm). It is filed as biochemical, human. Particulars: increasing concentrations; 1 μg 17β-HSD, 5 mM NAD, 20 μM 17β-estradiol, pH 7.5, 25° C., 15 min; FIG. 4. From the text:
To test the effect of "EM 139" on the inhibition of sex steroid formation, its effect on the 17β-hydroxysteroid dehydrogenase catalyzed conversion of estradiol to estrone was observed. The reaction was followed by monitoring formation of NADH (at 340 nm). The rate of conversion of cofactor NAD to NADH varies directly with the rate of estradiol conversion to estrone. The ability of "EM 139" to inhibit estrone production is indicative of its ability to inhibit the estrogen-forming reverse reaction because both reactions are catalyzed by 17β-hydroxysteroid dehydrogenase (Thomas et al., J. Biol. Chem. 258: 11500-11504, 1983). 17β-hydroxysteroid dehydrogenase (17β-HSD) was purified to homogeneity from human placenta. A reaction vessel was prepared containing 1 μg 17β-HSD, 5 mM NAD, 20 μM 17β-estradiol, and the concentrations of the test compound "EM 139" which are indicated along the X-axis of FIG. 4 in 1.0 ml of a mixture of Tris-HCl (50 mM), EDTA (2 mM), NaN3 (5 mM). The pH was 7.5. The reaction was allowed to proceed at 25° C. for 15 min. Formation of NADH was measured at 340 nm.

For test [4], the system named is rat uterine cytosol estrogen receptor. The experiment in a line: competition binding on the rat uterine cytosol estrogen receptor with [3H] estradiol. Particulars: 25° C., FIG. 1. As for the experimental part: J. Endocrinol. 112: R7-R110) and EM-142 (an antiestrogen having a nonsteroidal nucleus and synthesized in example 1, herein) for the rat uterine cytosol receptor ([…] et al., 1978; J. Steroid Biochem. 9: 1079-1082). EM-142 from example 1 was tested by competition binding on the rat uterine cytosol estrogen receptor with [^3 H] estradiol according to […] et al. (1976) prodecure. […] (incubation was performed at 25° C. for 3 hours).

The conditions of test [5]: reported by Saeed et al. and Sharma et al., 1990; cited from earlier work.
For test [6], the system named is ZR-75-1 human breast cancer cell line. The experiment in a line: growth of ZR-75-1 human breast cancer cells. Particulars: for IC50: Homo sapiens, 240 h, 10 days, read-out: half-maximal effectiveness / IC50 on growth of ZR-75-1 cells. It is filed as cell-based. The method, then:
ZR-75-1 cells (83rd passage) were obtained from the American Type Culture Collection (Rockville, Md.) and routinely cultured in phenol-red free RPMI 1640 supplemented with 1 nM E2, 2 mM L-glutamine, 1 mM sodium pyruvate, 15 mM N-2-hydroxyethyl-piperazine-N'-2-ethanesulfonic acid, 100 IU penicillin/ml, 100 μg streptomycin/ml, and 10% (v/v) fetal bovine serum (Hyclone, Logan, UT) under a humidified atmosphere of 95% air, 5% CO2, at 37° C. All media and medium supplements were purchased from Sigma. Cells were subcultured weekly by treatment with a pancreatic solution containing 0.02% EDTA (w/v). The cell cultures used for the experiments herein described were between passages 89 and 94.
Cells in their logarithmic growth phase were harvested, briefly centrifuged, and resuspended in RPMI 1640. Cells were then plated in triplicate in LIMBRO 24-well plastic culture plates (2 cm^2 /well). Since plating density influences the effect of hormones on ZR-75-1 cell growth, cells were plated at a density of 1×10^4 cells/well. After 72 h, medium was replaced with fresh medium of identical composition containing, in addition, the concentrations of steroids and/or inhibitors (e.g. EM 312 or EM 343) indicated along the X-axis of FIG. 5. Control cultures received the ethanol vehicle only. Cells were then allowed to grow at 37° C. for 10 days with medium changes (of identical composition) every 2 days. In absence of inhibitors, in 0.1 nM estradiol (E2)-containing medium, ZR-75-1 cells have doubling time of about 48 h.
After E2 and/or antiestrogen treatment, cells were harvested by addition of 0.5 ml of a pancreatin solution (Sigma) for 5-10 min at 37° C. before addition of 0.5 ml of RPMI 1640 containing 5% dextran-coated charcoal-fetal bovine serum in order to block enzymatic action. Cell number (0.10-ml aliquot) was determined by measurement of DNA content as previously described (Simard et al., Endocrinology 126: 3223-3231, 1990).

The test system of another test is advanced breast cancer. The following applies: H. Mouridsen et al., 1978; cited from earlier work.

As for `C=C1C[C@H]2[C@@H]3CCc4cc(O)ccc4[C@H]3CC[C@]2(C)[C@H]1O` [16-methylene estradiol], the “inhibition of 17β-hydroxysteroid dehydrogenase activity (in words)” value in test [1] is given as “inhibitors of 17β-hydroxysteroid dehydrogenase activity”.

For `C=C1C[C@H]2[C@@H]3CCc4cc(O)ccc4[C@H]3CC[C@]2(C)C1=O` [16-methylene estrone], in test [1], the “inhibition of 17β-hydroxysteroid dehydrogenase activity (in words)” value was “inhibitors of 17β-hydroxysteroid dehydrogenase activity”.

For the molecule `CCCCN(C)C(=O)CCCCCCCCCC[C@@H]1Cc2cc(O)ccc2[C@H]2CC[C@]3(C)[C@@H](O)[C@H](Cl)C[C@H]3[C@H]12` [EM 139, N-n-butyl-N-methyl-11-(16'α-chloro-3',17'β-dihydroxy-estra-1',3',5'(10') -trien-7' α-yl) undecanamide], the “reduction of estradiol-induced uterine weight gain (in words)” value in test [2] (s.c., twice daily, 9 injections, FIG. 3) was “highly effective in reducing estradiol-induced uterine weight gain”. Moreover, the “inhibition of 17β-HSD reaction (in words)” value in test [3] is listed as “significantly inhibited the reaction”.

With `CCCCN(C)C(=O)CCCCCCCCCCC(=C(CC)c1ccc(O)cc1)c1ccc(O)cc1` [EM 142, N-butyl, N-methyl-12,13-Bis(4-hydroxyphenyl)-12-pentadecenoic amide], in test [2] (0.3 μg, s.c., twice daily, estradiol 0.01 μg, FIG. 2), the “inhibitory effect on E2-induced uterine growth (in words)” value is reported as “significant inhibitory effect”. Further, in test [2] (20 μg, s.c., twice daily, estradiol 0.01 μg, FIG. 2), the “reversal of estrogenic action on uterine weight (in words)” value is “complete reversal of estrogenic action”. For the same molecule, the “estrogenic effect on uterine weight (in words)” value in test [2] (EM-142, agonism on uterine weight) is recorded as “no estrogenic effect on uterine weight”. For the same molecule, in test [4], the “binding potency compared with the antiestrogen ICI 164384 (in words)” value is “more potent” and the “times less potent than 17β-estradiol” value was 3 times.

Regarding `Oc1ccc(C2=Cc3ccc(O)cc3OC2c2ccc(OCCN3CCCCC3)cc2)cc1` (stereo not shown) [EM 312], in test [5], the “antiestrogenic activity (in words)” value was “antiestrogenic activity”. The IC50 in test [6] (ZR-75-1 cells, FIG. 5) amounted to 843 pM. For the same molecule, the “fold by which IC50 is higher than that of EM 343” value in test [6] (ZR-75-1 cells, relative to EM 343, FIG. 5) is listed as 3 -fold. In test [6] (comparative testing in the applicant's laboratory), the “comparative effect on growth of ZR-75-1 cells vs EM 343 (in words)” value is “underperformed EM 343”.

For the molecule `CC1=C(c2ccc(O)cc2)C(c2ccc(OCCN3CCCCC3)cc2)Oc2cc(O)ccc21` (stereo not shown) [EM 343], in test [6] (ZR-75-1 cells, FIG. 5), the IC50 stood at 255 pM. The “cell growth inhibition (in words)” value in test [6] (ZR-75-1 cells, low concentration, FIG. 5) is reported as “extensive cell growth inhibition”.

With `CC/C(=C(\c1ccccc1)c1ccc(OCCN(C)C)cc1)c1ccccc1` [Tamoxifen], in the test with advanced breast cancer, the “women patients with remission of advanced breast cancer” value is reported as “about 30%”.
